Laboratory results from patent US5023084A, “Transdermal estrogen/progestin dosage unit, system and process” (Rutgers, The State University of New Jersey, priority 1988, dated 1991).

Test: not given
Conditions: oral; cited from earlier work

Row | Compound | 17-beta-estradiol destroyed when taken orally
1 | C[C@]12CC[C@@H]3c4ccc(O)cc4CC[C@H]3[C@@H]1CC[C@@H]2O [17-beta-estradiol] | over 90%

Test: Permeation of estradiol and levonorgestrel across adult male human cadaver skin
Type: in vitro ADME
Conditions: not given
Experimental: Layer 2 contains levonorgestrel and layer 4 contains 17-beta-estradiol.
The primary and secondary enhancing agents are incorporated into levonorgestrel containing layer 2. The amounts of primary and secondary enhancing agents specified in Table 16 are used in making dosage units.
Permeation rates (mcg/sq. cm/hr±S.D.) are determined using the in vitro procedure of Y. W. Chien et al. identified in Example 1 using human cadaver skin.

Row | Compound | Estradiol/Levonorgestrel Rate/Ratio | Permeation Rate, Estradiol | Permeation Rate, Levonorgestrel
2 | CC(=O)Oc1c(C)c(C)c2c(c1C)CCC(C)(CCCC(C)CCCC(C)CCCC(C)C)O2 (racemic) [dl-alpha-Tocopherol Acetate] | 1.0 (0.07) | 0.18 (0.024) mcg/sq. cm/hr | 0.182 (0.029) mcg/sq. cm/hr
3 | Cc1c(C)c2c(c(C)c1O)CCC(C)(CCCC(C)CCCC(C)CCCC(C)C)O2 (racemic) [dl-alpha-Tocopherol] | 1.6 (0.10) | 0.20 (0.031) mcg/sq. cm/hr | 0.127 (0.021) mcg/sq. cm/hr
4 | CC1=C(/C=C/C(C)=C/C=C/C(C)=C/C(=O)O)C(C)(C)CCC1 [Retinoic Acid, retinoic acid] | 1.4 (0.16) | 0.22 (0.033) mcg/sq. cm/hr | 0.159 (0.024) mcg/sq. cm/hr
5 | CC1=C(/C=C/C(C)=C/C=C/C(C)=C/CO)C(C)(C)CCC1 [Retinol, retinol] | 1.5 (0.11) | 0.21 (0.040) mcg/sq. cm/hr | 0.141 (0.019) mcg/sq. cm/hr
6 | CCCCCCCCCCCCCCCC(=O)OC/C=C(C)/C=C/C=C(C)/C=C/C1=C(C)CCCC1(C)C [Retinyl Palmitate, retinyl palmitate] | 1.0 (0.13) | 0.18 (0.030) mcg/sq. cm/hr | 0.176 (0.027) mcg/sq. cm/hr
7 | CCCCCCCCCCO [n-Decyl Alcohol, n-decyl alcohol] | 2.4 (0.21) | – | –

Same assay, conditions: dosage unit with […] W/W n-decyl alcohol, with or without 5.0% secondary enhancer; S.D. in parentheses

Row | Compound | Permeation Rate, Estradiol | Permeation Rate, Levonorgestrel
8 | CCCCCCCCCCO [n-Decyl Alcohol, n-decyl alcohol] | 0.19 (0.031) mcg/sq. cm/hr | 0.080 (0.017) mcg/sq. cm/hr
